Data on 28 substances can be found in US20040102622A1, “Modulation of hepatocyte growth factor receptor expression” (Isis Pharmaceuticals Inc., priority 2002, published 2004).

Strand notation (5' to 3'): a small letter for the sugar, then the base; units joined by * are phosphorothioate-linked, units joined directly phosphodiester-linked; [ ] holds rarer units or linkages, { } end groups; capitals alone tell only the bases. e = 2'-O-(2-methoxyethyl) (MOE); [5mC] = 5-methylcytosine; d = 2'-deoxy (DNA)

The first data set relates to human hepatocyte growth factor receptor mRNA.
Assay: not given
Conditions: not given
“ISIS 209540: 2′-MOE gapmer, phosphorothioate backbone, sequence cacatcccttgtaagttgga (antisense CACATCCCTTGTAAGTTGGA; all phosphorothioate, sugars by position and methylation of C not given here; 2'-MOE gapmer)”: the “inhibition of human hepatocyte growth factor receptor expression” value is “at least 35%”. Still for that read-out and setting: the same measure for “ISIS 209525: 2′-MOE gapmer, phosphorothioate backbone, sequence ctggtccgtcaaaaacataa (antisense CTGGTCCGTCAAAAACATAA; all phosphorothioate, sugars by position and methylation of C not given here; 2'-MOE gapmer)”: “at least 35%”. Still for that read-out and setting: the result for “ISIS 209548: 2′-MOE gapmer, phosphorothioate backbone, sequence tcaagaagccctcaatattt (antisense TCAAGAAGCCCTCAATATTT; all phosphorothioate, sugars by position and methylation of C not given here; 2'-MOE gapmer)” reads “at least 35%”.

For a further data set the test system is unchanged. Description: Inhibition of human hepatocyte growth factor receptor mRNA levels in T-24 cells, quantitative real-time PCR. For % INHIB (inhibition of human hepatocyte growth factor receptor mRNA levels): test concentration or dose not given here. The settings on record: averages from three experiments.
As to “209543 (antisense eG*eA*eT*eG*e[5mC]*d[5mC]*dA*d[5mC]*d[5mC]*dG*dT*dG*d[5mC]*dA*d[5mC]*eT*eG*eT*eG*e[5mC]) [compound 209543]”, the “% INHIB (inhibition of human hepatocyte growth factor receptor mRNA levels)” value (from here on “% INHIB”) was found to be 85%. On the same count and under the same terms, the same measure for “155104 (antisense eA*eT*eG*e[5mC]*eA*dA*dT*dG*dG*dA*dT*dG*dA*dT*d[5mC]*eT*eG*eG*eG*eA) [compound 155104]”: 84%. On the same count and under the same terms, the result for “155121 (antisense eT*eG*eA*eA*eA*dG*dG*dA*d[5mC]*dT*dT*dT*dG*dG*d[5mC]*eT*e[5mC]*e[5mC]*e[5mC]*eA) [compound 155121]” reads 79%; that for “155127 (antisense eG*eA*eT*e[5mC]*eT*dG*dG*dT*dT*dG*dA*dA*d[5mC]*dT*dA*eT*eT*eA*e[5mC]*eT) [compound 155127]”, 84%. Consider “209553 (antisense e[5mC]*eG*e[5mC]*e[5mC]*e[5mC]*dA*d[5mC]*dG*dA*d[5mC]*dA*dA*dG*dG*dT*eG*eA*eA*eA*e[5mC]) [compound 209553]”, for which the “% INHIB” value amounted to 0%. Still for that read-out and setting: the same measure for “209551 (antisense e[5mC]*eT*eT*eG*eG*dG*dA*dG*dG*d[5mC]*dG*dA*dG*dT*dG*eT*e[5mC]*eA*e[5mC]*e[5mC]) [compound 209551]”: 0%; for “155106 (antisense e[5mC]*eA*e[5mC]*eA*eA*d[5mC]*d[5mC]*dT*dG*d[5mC]*dA*dT*dG*dA*dA*eG*e[5mC]*eG*eA*e[5mC]) [compound 155106]”: 66%; for “155131 (antisense e[5mC]*eA*eA*eT*eT*dT*dG*dG*d[5mC]*dA*dA*dG*dG*dA*dG*e[5mC]*eA*eA*eA*eG) [compound 155131]”: 0%.

Regarding “155114 (antisense eA*eA*eT*eT*eG*dT*dT*dG*d[5mC]*dT*dT*dT*d[5mC]*dA*dA*eA*eG*eG*e[5mC]*eA) [compound 155114]”, the “% INHIB” value was determined as 94%. The same measure, in the same setting: the same measure for “155100 (antisense eA*eG*e[5mC]*eT*eG*dA*dT*dA*d[5mC]*dT*dT*d[5mC]*dA*dT*dA*eT*eT*e[5mC]*eA*e[5mC]) [compound 155100]”: 0%; for “155116 (antisense eA*eA*eA*eT*e[5mC]*dT*dT*dT*d[5mC]*dA*dT*dG*dA*dT*dG*eA*eT*eT*e[5mC]*e[5mC]) [compound 155116]”: 54%; for “209544 (antisense eT*eA*eA*eT*eA*dG*dT*dG*d[5mC]*dA*dA*dT*dT*dT*dT*eG*eG*e[5mC]*eA*eA) [compound 209544]”: 82%.

With “155107 (antisense eT*e[5mC]*e[5mC]*eG*e[5mC]*dG*dG*dT*dG*dA*dA*dG*dT*dT*dG*eG*eG*eA*eA*eG) [compound 155107]”, the “% INHIB” value worked out at 42%. As for “155115 (antisense eA*eG*eT*eT*e[5mC]*d[5mC]*dT*dT*d[5mC]*d[5mC]*dT*dG*d[5mC]*dT*dT*e[5mC]*eA*eT*eG*e[5mC]) [compound 155115]”, the “% INHIB” value was found to be 89%. The same measure, in the same setting: the same measure for “155132 (antisense eG*eA*eT*eT*e[5mC]*d[5mC]*d[5mC]*dT*d[5mC]*dG*dG*dT*d[5mC]*dA*dG*eA*eA*eA*eT*eT) [compound 155132]”: 39%. On to “209531 (antisense eT*eA*eA*eG*eT*d[5mC]*dA*dA*dT*dT*dT*dT*d[5mC]*dA*dA*eT*eT*eT*eA*eA) [compound 209531]”, for which the “% INHIB” value is recorded as 13%. On the same count and under the same terms, the same measure for “155130 (antisense eT*e[5mC]*eT*e[5mC]*eT*dG*dA*dA*d[5mC]*dT*d[5mC]*dA*dG*dG*dT*eA*eA*eA*eA*e[5mC]) [compound 155130]”: 83%. The same measure, in the same setting: the result for “209542 (antisense e[5mC]*eT*eT*eG*e[5mC]*dT*dT*d[5mC]*d[5mC]*dA*d[5mC]*dT*dA*dA*dA*eA*eA*eT*eG*eA) [compound 209542]” reads 74%. On the same count and under the same terms, the same measure for “209528 (antisense eT*eT*eG*eG*eG*dA*dA*dA*dA*d[5mC]*d[5mC]*dT*dT*dG*dT*eA*eG*eA*eT*eT) [compound 209528]”: 42%.

For “209552 (antisense eT*eG*eA*eA*eA*d[5mC]*dT*dT*dT*d[5mC]*dT*dA*dG*dG*dT*eG*eG*eA*eG*eA) [compound 209552]”, the “% INHIB” value worked out at 0%. Still for that read-out and setting: the same measure for “155128 (antisense eA*e[5mC]*eT*eG*eT*dG*dA*dA*dT*dT*dT*dT*dT*d[5mC]*dA*eT*e[5mC]*e[5mC]*eA*eG) [compound 155128]”: 83%. Same read-out and setting: the result for “155108 (antisense eA*eT*eT*e[5mC]*eT*d[5mC]*dG*dG*dG*dA*d[5mC]*dA*d[5mC]*dT*dA*eA*e[5mC]*eT*eG*eA) [compound 155108]” reads 79%; that for “155124 (antisense eT*eA*eT*eG*eA*dT*dG*dT*d[5mC]*dT*d[5mC]*d[5mC]*d[5mC]*dA*dG*eA*eA*eG*eG*eA) [compound 155124]”, 53%; that for “209522 (antisense eA*eG*eA*eG*eG*dT*dT*dT*dA*dT*d[5mC]*dT*dT*dT*d[5mC]*eG*eG*eT*eG*e[5mC]) [compound 209522]”, 73%. With “209545 (antisense eA*eA*eT*eA*e[5mC]*dA*dA*dG*dT*d[5mC]*d[5mC]*dT*dA*dT*dA*eA*eT*eA*eG*eT) [compound 209545]”, the “% INHIB” value was found to be 10%.
